The values that follow come from patent US8017755B2, “RNA-based transcriptional regulators” (President and Fellows of Harvard College, priority 2003, dated 2011).

The test system of one data set is HIS3 gene. As to the kind of experiment: Survival on media lacking histidine in strain L40-ura3, which lacks the LexA-MS2 fusion protein. Type of data set: cell-based, S. cerevisiae. An excerpt:
To test whether the evolved RNAs require the MS2 protein-mediated localization to the LexA promoter, we introduced the plasmids expressing two representative active clones (m26-11 and m26-15) into the yeast strain L40-ura3 which lacks the LexA-MS2 fusion protein but is otherwise identical to YBZ-1 (Bernstein, D. S., Buter, N., Stumpf, C., and Wickens, M. (2002). Analyzing mRNA-protein complexes using a yeast three-hybrid system. Methods 26, 123-141).
Media consisted of yeast nitrogen base (Sigma), 4% dextrose, and synthetic drop out supplements lacking histidine or histidine and uracil (Clontech). Yeast were cultured either in liquid medium or on agar plates at 30° C. S. cerevisiae strains YBZ-1 (MATa, ura3-52, leu2-3, 112, his3-200, trp1-1, ade2, LYS2::(LexA op)-HIS3, ura3::(LexA op)-LacZ, LexA-MS2-MS2 coat (N55K)) and L40-ura3 (MATa, ura3-52, leu2-3112, his3Δ200, trp1Δ1, ade2, LYS2::(LexA op)-HIS3, ura3::(LexA op)-LacZ) were a gift from Professor Marvin Wickens (Bernstein, D. S., Buter, N., Stumpf, C., and Wickens, M. (2002). Analyzing mRNA-protein complexes using a yeast three-hybrid system. Methods 26, 123-141).

For data set [1] the following is noted: Gal4-VP16 fusions versus intact Gal4; cited from earlier work.
The target in a further data set is TMR-binding aptamer. The settings on record: cited from earlier work.
The subject of another data set is S. cerevisiae cell wall. The settings on record: cited from earlier work.
Another data set relates to S. cerevisiae. Put plainly: Growth of yeast cultures in varying TMR concentrations. The settings on record: 10 μM TMR.
In a further data set the test system is yeast. To be noted: cited from earlier work.

As for “m26-15: evolved N40-26 variant SEQ ID NO: 28 CGCGGACCAAUGGU-CCCCCAAGUGGAUGCCUAAGCCUCUU (DNA CGCGGACCAAUGGUCCCCCAAGUGGAUGCCUAAGCCUCUU; listed as RNA, chemistry not given here)”, in the data set on HIS3 gene, the “survival on media lacking histidine without LexA-MS2 fusion protein” value was “unable to survive”.
For the compound VP16, the “transcriptional activation, fold more potent than Gal4” value in data set [1] is on record as 100 fold.
Turning to `CN(C)c1ccc2c(-c3ccc(CCl)cc3)c3ccc(=[N+](C)C)cc-3oc2c1` [TMR, tetramethylrosamine], the dissociation constant (Kd) – broadly, the free concentration of one partner at which half of the binding sites on the other are occupied at equilibrium, for simple one-to-one binding – at TMR-binding aptamer is 40 nM. For the same compound, the “crossing of the S. cerevisiae cell wall” value in the data set on S. cerevisiae cell wall is given as “cross the S. cerevisiae cell wall”. The “growth inhibition of yeast” value with S. cerevisiae was “Slight growth inhibition”. For the same compound, the “concentration non-toxic to yeast” value with yeast is on record as “up to 1 μM”.
